Experimental data from patent publication US5750531A, “Pyrimidine derivatives and processes for the preparation thereof” (Yuhan Corporation, priority 1994, dated 1998).

What was measured:
[1] = biological target: proton pump(H^+ /K^+ ATPase); assay: Inhibition of proton pump(H^+ /K^+ ATPase) activity; assay type: biochemical; details: pH 6.0, 37° C., 30 minutes preincubation and 30 minutes reaction; read-out: IC50 Test compound
How it was run: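 Enzyme was preincubated with compound at five concentrations for 30 min at 37° C in Tris-HCl pH 6.0 with Mg2+, K+ and NH4Cl. Reaction ran 30 min at 37° C with ATP and was stopped with trichloroacetic acid. K+-stimulated inorganic phosphate release gave IC50 by Litchfield-Wilcoxon.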

gastric secretion = assay: Inhibition of gastric secretion (pylorus ligation, Shay method); assay type: in vivo, Male Sprague-Dawley rats; details: 20 mg/kg intraduodenally, 5 hours; for Rel. Conc.: acid concentration relative to omeprazole; for Relative Acid Output: acid output relative to omeprazole; for Rel. Vol.: gastric juice volume relative to omeprazole
How it was run: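 Rats under ether anaesthesia had the pylorus ligated, and the stomach was removed 5 h later. Gastric juice was centrifuged at 1,000 g, and its volume and acidity were measured. Relative volume, relative acid concentration and relative acid output […] were then calculated.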

Compound	IC50 [1] [µM]	Rel. Conc. (gastric secretion)	Relative Acid Output (gastric secretion)	Rel. Vol. (gastric secretion)
Cc1cc(Nc2ccc(F)cc2)nc(N2CCc3ccsc3C2C)n1.Cl (centres unmarked) [Example 60, 6-methyl-4-(4-fluorophenylamino)-2-(7-methyl-4,5,6,7-tetrahydrothieno[2,3-c]pyridin-6-yl)pyrimidine hydrochloride]	~15	0.28	0.65	0.65
CCc1cc(Nc2ccc(F)cc2C)nc(N2CCc3ccccc3C2C)n1.Cl (centres unmarked) [Example 61, 6-Ethyl-4-(2-methyl-4-fluorophenylamino)-2-(1-methyl-1,2,3,4-tetrahydroisoquinolin-2-yl)pyrimidine hydrochloride]	~12.5	0.22	0.40	0.32
CCc1cc(Nc2ccc(F)cc2C)nc(N2CCc3ccccc3C2)n1.Cl [Example 62, 6-ethyl-4-(2-methyl-4-fluorophenylamino)-2-(1,2,3,4-tetrahydroisoquinolin-2-yl)pyrimidine hydrochloride]	> 20	0.31	0.67	0.61
CCc1cc(Nc2ccc(F)cc2)nc(N2CCc3ccccc3C2)n1.Cl [Example 63, 6-ethyl-4-(4-fluorophenylamino)-2-(1,2,3,4-tetrahydroisoquinolin-2-yl)pyrimidine hydrochloride]	~12	0.33	0.72	0.69
CCc1cc(N(C)c2ccccc2)nc(N2CCc3ccccc3C2)n1.Cl [Example 64, 6-ethyl-4-(N-methylphenylamino)-2-(1,2,3,4-tetrahydroisoquinolin-2-yl)pyrimidine hydrochloride]	~10	0.26	0.40	0.34
Cc1cc(F)ccc1Nc1nc(N2CCc3ccccc3C2C)nc(C)c1C.Cl (centres unmarked) [Example 65, 5,6-dimethyl-4-(2-methyl-4-fluorophenylamino)-2-(1-methyl-1,2,3,4-tetrahydroisoquinolin-2-yl)pyrimidine hydrochloride]	1	0.35	0.71	1.43
Cc1cc(F)ccc1Nc1nc(N2CCc3ccccc3[C@H]2C)nc(C)c1C.Cl [Example 66, (R)-5,6-dimethyl-4-(2-methyl-4-fluorophenylamino)-2-(1-methyl-1,2,3,4-tetrahydroisoquinolin-2-yl)pyrimidine hydrochloride]	0.9	0.47	0.85	1.49
Cc1cc(F)ccc1Nc1nc(N2CCc3ccccc3[C@@H]2C)nc(C)c1C.Cl [Example 67, (S)-5,6-dimethyl-4-(2-methyl-4-fluorophenylamino)-2-(1-methyl-1,2,3,4-tetrahydroisoquinolin-2-yl)pyrimidine hydrochloride]	1.3	0.31	0.62	1.36
Cc1nc(N2CCc3ccccc3C2C)nc(Nc2ccc(F)cc2)c1C.Cl (centres unmarked) [Example 68, 5,6-dimethyl-4-(4-fluorophenylamino)-2-(1-methyl-1,2,3,4-tetrahydroisoquinolin-2-yl)pyrimidine hydrochloride]	3.1	0.23	0.67	1.52
Cc1nc(N2CCc3ccccc3[C@H]2C)nc(Nc2ccc(F)cc2)c1C.Cl [Example 69, (R)-5,6-dimethyl-4-(4-fluorophenylamino)-2-(1-methyl-1,2,3,4-tetrahydroisoquinolin-2-yl)pyrimidine hydrochloride]	2.9	0.39	0.76	1.61
Cc1nc(N2CCc3ccccc3[C@@H]2C)nc(Nc2ccc(F)cc2)c1C.Cl [Example 70, (S)-5,6-dimethyl-4-(4-fluorophenylamino)-2-(1-methyl-1,2,3,4-tetrahydroisoquinolin-2-yl)pyrimidine hydrochloride]	3.5	0.22	0.61	1.3
